Laboratory results as given in US9975922B2, “Peptide inhibitor of HIV reverse transcription” (priority 2013, dated 2018).
Where a SMILES comes first, the peptide text is derived from it.

Legend:
[1] = target: modified hASL^Lys3UUU; test: fluorescent binding assay of fluorescein-labeled peptides, binding constants; design: species or system human; settings: for Kd: Modified hASL^Lys3UUU, N-terminal fluorescein peptide, phosphate buffer pH 6.8, ASL 0-3 μM; for affinity relative to P6: from Kd values, compared with P6
Protocol: (§1) Fifteen-amino acid peptides were selected from the sequences predicted in silico and were chemically synthesized, each with fluorescein (Flc) at the N-terminus. This set of peptides included the original P1 and P6 sequences to be used as an internal control. […] Concentrated peptide stocks were stored in 25 μl aliquots at […] for later use. Working concentrations were diluted for each experiment and kept on ice or stored at −20° C.
(§2) Fluorescent assays were conducted in phosphate buffer (10 mM Na2HPO4 and 10 mM KH2PO4, pH 6.8) in low volume 384 well plates. All buffers, peptides, and RNA were pipetted into wells via a liquid handling robot (Janus, PerkinElmer). All plates were read using a plate reader fitted with fluorescein specific filters (PerkinElmer EnVision) which was optimized for each plate and peptide before each experiment. Initial validation screens were conducted by obtaining fluorescent signals for each peptide (0.50 μM) alone (FS0) and in the presence of a 2-fold excess of modified or unmodified hASLLys3UUU (FS1). Percent change in fluorescent signal was calculated (% Change=100*(FS1/FS0)). A decrease (quench) in fluorescent signal in the presence of RNA indicated a binding event between the peptide and ASL. In control wells H2O, phosphate buffer, and ASLs were individually tested for any inherent fluorescent signal. Water and buffer signals served as blank background signals. […] All controls and experimental sets were repeated in triplicate within a single plate and signals are an average of each triplicate. For the subset of peptides which were further studied to obtained binding constants, the fluorescent binding assay was completed as above. The peptide fluorescent signal was monitored throughout an increasing ASL concentration (0-3 μM). The percent quench in signal was plotted against the hASL concentration. Binding constants (Kd) were calculated using the single linear regression function within SigmaPlot. Experiments were performed in triplicate within a single plate and fluorescent signals are an average of each triplicate.

[2] = target: unmodified hASL^Lys3UUU; test: as above; design: species or system human; settings: N-terminal fluorescein peptide, phosphate buffer pH 6.8, ASL 0-3 μM
Protocol: as §1, §2

[3] = tested on: modified hASL^Lys3UUU; test: initial validation screen, change in peptide fluorescence on addition of ASL; format: binding, human; settings: 2-fold excess of modified hASL^Lys3UUU; result in words
Protocol: (§3) An initial fluorescent signal (FS0) of peptide alone ([…]) was obtained. Then, a 2-fold excess of ASL was added to each peptide and the fluorescent signal (FS1) was monitored. The percent change (100*(FS1/FS0)) is graphed for each of the assayed peptides. Dark gray bars represent the percent change in fluorescence in the presence of the modified hASL^Lys3UUU and light gray bars represent the percent change in the presence of the unmodified hASL^Lys3UUU.
(§4) Sequences predicted during the in silico optimizations to have the lowest binding energies and thus, potentially higher affinity for modified hASL^Lys3, were selected for validation with a fluorescence assay (9). Fifteen peptides (Table 3) were chemically synthesized with fluorescein at the N-terminus to allow for very sensitive, low volume detection of peptide-RNA binding interactions. P1 and P6 from phage display selections (9), the initially evolved sequences, P26 and P27, and the best binders from each of the Cases 1, 2 and 3 were synthesized. Variants of these sequences that had one or two amino acid changes were also synthesized (Table 3). During the initial validation assay, changes in the amount of fluorescence were monitored to determine whether the peptide was binding to the modified and/or unmodified hASLLys3UUU and to what relative degree (FIG. 12). In this screening assay, P6 behaved as expected. […] Other peptides behaved similarly.
as §1, §2

[4] = tested on: unmodified hASL^Lys3UUU; test: as above; format: binding, human; settings: 2-fold excess of unmodified hASL^Lys3UUU; result in words
Protocol: as §3, §4, §1, §2

[5] = target: modified hASLLys3; settings: cited from earlier work
[6] = target: unmodified ASL; settings: NCp7, unmodified ASL; cited from earlier work
[7] = tested on: hypermodified ASL^Lys3; settings: result in words; cited from earlier work
[8] = tested on: singly modified ASL^Lys3, AsL^Lys1, 2 and Escherichia coli ASL^Glu and ASL^Val; settings: singly modified ASL^Lys3, ASL^Lys1,2, E. coli ASL^Glu and ASL^Val; result in words; cited from earlier work

Molecule	Kd [1] [nM]	change in fluorescent signal of peptide (binding, preference for modified ASL) [3]	other results
CC(C)C[C@H](NC(=O)[C@H](CO)NC(=O)[C@@H]1CCCN1C(=O)[C@H](Cc1ccccc1)NC(=O)[C@H](CO)NC(=O)[C@@H](NC(=O)[C@H](CO)NC(=O)[C@@H](N)Cc1ccccc1)C(C)C)C(=O)N1CCC[C@H]1C(=O)N[C@@H](C)C(=O)N1CCC[C@H]1C(=O)N1CCC[C@H]1C(=O)N[C@@H](CC(=O)O)C(=O)N[C@@H](CCCNC(=N)N)C(=O)N[C@@H](CO)C(=O)O [Peptide P1, FSVSFPSLPAPPDRS, reference compound] (H-FSVSFPSLPAPPDRS-OH)	130 ± 20	increased the fluorescence either with the unmodified or modified hASL^Lys3UUU, but not both	affinity relative to P6 [1]: four fold; Kd [2]: 150 ± 40 nM
CC(C)C[C@H](NC(=O)[C@H](Cc1ccccc1)NC(=O)[C@H](C)NC(=O)[C@H](Cc1c[nH]cn1)NC(=O)[C@H](Cc1c[nH]cn1)NC(=O)[C@@H](NC(=O)[C@@H](NC(=O)[C@@H](N)CCCNC(=N)N)C(C)C)[C@@H](C)O)C(=O)NCC(=O)N[C@@H](C)C(=O)N[C@@H](Cc1c[nH]cn1)C(=O)N[C@@H](CCCNC(=N)N)C(=O)N[C@H](C(=O)N[C@H](C(=O)NCC(=O)O)C(C)C)[C@@H](C)O [Peptide P6, RVTHHAFLGAHRTVG, reference compound] (H-RVTHHAFLGAHRTVG-OH)	500 ± 100	quenched more than when bound by the unmodified hASL^Lys3UUU	
CSCC[C@H](NC(=O)[C@H](CCC(N)=O)NC(=O)[C@H](Cc1c[nH]c2ccccc12)NC(=O)[C@@H](N)CCCNC(=N)N)C(=O)N[C@H](C(=O)N[C@@H](C)C(=O)N[C@@H](Cc1ccccc1)C(=O)N[C@@H](C)C(=O)N[C@@H](Cc1c[nH]cn1)C(=O)NCC(=O)N[C@@H](Cc1c[nH]c2ccccc12)C(=O)N[C@@H](CCCNC(=N)N)C(=O)N[C@@H](Cc1c[nH]cn1)C(=O)N[C@@H](CO)C(=O)NCC(=O)O)[C@@H](C)O [Peptide P27, RWQMTAFAHGWRHSG] (H-RWQMTAFAHGWRHSG-OH)	50 ± 20	quenched to a greater degree in binding the modified hASL^Lys3UUU than was the fluorescence of P6	affinity relative to P6 [1]: 10 fold; change in fluorescent signal of peptide [4]: little or no change in fluorescence
CSCC[C@H](NC(=O)[C@H](CCCNC(=N)N)NC(=O)[C@H](Cc1c[nH]c2ccccc12)NC(=O)[C@H](CC(C)C)NC(=O)[C@@H]1CCCN1C(=O)[C@H](Cc1c[nH]cn1)NC(=O)[C@H](Cc1ccccc1)NC(=O)[C@H](CO)NC(=O)[C@H](Cc1c[nH]cn1)NC(=O)[C@H](Cc1c[nH]cn1)NC(=O)[C@H](CCC(N)=O)NC(=O)[C@H](Cc1c[nH]c2ccccc12)NC(=O)[C@@H](N)CCCNC(=N)N)C(=O)N[C@@H](CO)C(=O)NCC(=O)O [Peptide P31, RWQHHSFHPLWRMSG] (H-RWQHHSFHPLWRMSG-OH)	580 ± 240	quenched to a greater degree in binding the modified hASL^Lys3UUU than was the fluorescence of P6	affinity relative to P6 [1]: equivalent to P6; change in fluorescent signal of peptide [4]: little or no change in fluorescence
NCp7: HIV-1 nucleocapsid protein 7, binds and destabilizes htRNA^Lys3UUU (MQRGNFRNQRKIVKCFNCGKEGHTARNCRAPRKKGCWKCGKEGHQMKDCTERQAN; Nucleocapsid protein p7; UniProt P04591 378-432, looked up)			Kd ([5]; NCp7, modified hASLLys3): 280 ± 30 nM; increase of NCp7 affinity by the modifications ([5]; modified vs unmodified hASLLys3): ~10 fold; Kd [6]: 2300 ± 620 nM
RFQHSNWFSGWKVNG [Peptide P34]		increased the fluorescence either with the unmodified or modified hASL^Lys3UUU, but not both	
RGVFSHPHTAVPSHN			binding affinity [7]: relatively high binding affinity; binding [8]: bound poorly
RHHHASFGPPWLSHG [Peptide P32]		significantly weaker affinities and a lack of specificity	
RHSHAHFGPPWLSHG [Peptide P33]		significantly weaker affinities and a lack of specificity	
RTLHHALFGAHQTVG [Peptide P26]		increased the fluorescence either with the unmodified or modified hASL^Lys3UUU, but not both	
RWNGSQWFCAWRANG [Peptide P36]		increased the fluorescence either with the unmodified or modified hASL^Lys3UUU, but not both	
RWTHCQFWQGFRVNG [Peptide P38]		increased the fluorescence either with the unmodified or modified hASL^Lys3UUU, but not both	
